According to paper PMC7501296, “Rapid and direct control of target protein levels with VHL-recruiting dTAG molecules” (Nature Communications, 2020):
“And” between values parts separate entries of the source, which are not always exact repeats. Equal entries are not always repeated.

What was measured:
[1] = system: PATU-8902 LACZ-FKBP12^F36V clone; assay: Quantitative MS proteomics, PATU-8902 LACZ-FKBP12F36V clone; format: cell-based, Homo sapiens; conditions: PATU-8902 LACZ-FKBP12F36V samples, biological replicates
Protocol: Cell pellets from PATU-8902 and EWS502 cells were lysed using 8 M urea, 200 mM 4-(2-hydroxyethyl)-1-piperazinepropanesulfonic acid (EPPS) at pH 8.5 with protease inhibitors. Samples were further homogenized and DNA was sheered via sonication using a probe sonicator (20 × 0.5 s pulses; level 3). Total protein was determined using a BCA assay and stored at −80 °C until future use. A total of 100 µg of protein was aliquoted for each condition and TMT channel for further downstream processing. Protein extracts were reduced using 10 mM dithiothreitol (DTT) for 30 min at room temperature. Next, samples were alkylated with 20 mM iodoacetamide for 45 min in the dark at room temperature. To facilitate the removal of incompatible reagents, proteins were precipitated using chloroform methanol. Briefly, to 100 µL of each sample, 400 µL of methanol was added, followed by 100 µL of chloroform with thorough vortexing. Next, 300 µL of HPLC grade water was added and samples were vortexed thoroughly. Each sample was centrifuged at 14,000 × g for 5 min at room temperature. The upper aqueous layer was removed and the protein pellet was washed twice with methanol and centrifuged at 14,000 × g for 5 min at room temperature. Protein pellets were resolubilized in 200 mM EPPS buffer and digested overnight with Lys-C (1:100, enzyme:protein ratio) at room temperature. The next day, trypsin (1:100 ratio) was added and incubated at 37 °C for an additional 6 h in a ThermoMixer set to 1000 RPM.
To each digested sample, 30% anhydrous acetonitrile was added and 100 µg of peptides were labeled using 200 µg of TMT reagent (TMT1-TMT11). Following labeling, a 5% hydroxylamine solution was used to quench excess TMT reagent. To equalize protein loading, a ratio check was performed by pooling 2 µg of each TMT-labeled sample. Samples were pooled and desalted using in-house packed C18 StageTips and analyzed by LC-MS/MS. Normalization factors were calculated from this label check, samples were mixed 1:1 across all TMT channels and desalted using a 100 mg Sep-Pak solid phase extraction cartridge. Eluted pooled peptides were further fractionated with basic-pH reverse-phase (bRP) HPLC using an Agilent 300 extend C18 column and collected into a 96 deep-well plate. Samples were consolidated into 24 fractions, and 12 nonadjacent fraction were desalted using StageTips prior to analyses using LC-MS/MS[35]–[37].
All mass spectrometry data was acquired using an Orbitrap Fusion mass spectrometer in-line with a Proxeon NanoLC-1000 UHPLC system. Peptides were separated using an in-house 100 µm capillary column packed with 40 cm of Accucore 150 resin (2.6 µm, 150 Å) (Thermo Fisher Scientific) using a 180 min LC gradient per fraction. Eluted peptides were acquired using synchronous precursor selection (SPS-MS3) method for TMT quantification. Briefly, MS1 spectra were acquired at 120 K resolving power with a maximum of 50 ms in the Orbitrap. MS2 spectra were acquired by selecting the top ten most abundant features via collisional induced dissociation (CID) in the ion trap using an automatic gain control (AGC) of 15 K, quadrupole isolation width of 0.7 m/z and a maximum ion time of 100 ms. For MS3 acquisition, a synchronous precursor selection of ten fragment ions was acquired with an AGC of 150 K for 150 ms and a normalized collision energy of 55.
All acquired raw data were converted to mzXML using Raw File Reader (v3.0.77). Spectra were processed using Comet (2019.01.5)[39]–[41], search results were filtered using the LDA function MASS Package in R, and data were processed using an in-house informatics pipeline[42]–[44]. Custom code was not developed in this study. Briefly, peptide spectral libraries were first filtered to a peptide false discovery rate (FDR) of less than 1% using linear discriminant analysis employing a target decoy strategy. […]

[2] = system: PATU-8902 LACZ-FKBP12^F36V clone; assay: Antiproliferation, PATU-8902 LACZ-FKBP12F36V clone, 2D-monolayer (CellTiter-Glo); format: cell-based
Summary of the method: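 Viability of cells grown as 2D-adherent monolayers was determined with the CellTiter-Glo luminescent reagent (Promega). Luminescence signals were read on either an Envision 2104 plate reader (PerkinElmer) or a Fluostar Omega Reader (BMG Labtech), and the resulting data were processed and analyzed in GraphPad PRISM v8 software.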

FKBP12^WT-Nluc = target: T1, FKBP12^WT-Nluc (Homo sapiens, UniProt P62942); assay: FKBP12WT-Nluc dual luciferase assay (293FT); format: cell-based; conditions: 293FT FKBP12WT-Nluc, 24 h
T1 construct: expressed in transfected cells; host or cells: 293FT
T1 sequence (P62942 2-108 limits assumed): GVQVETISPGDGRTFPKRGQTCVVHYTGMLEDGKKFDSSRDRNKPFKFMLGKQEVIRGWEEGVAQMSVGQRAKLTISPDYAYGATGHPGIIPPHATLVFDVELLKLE
Summary of the method: (§1)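 293FT cells expressing FKBP12^WT-Nluc or FKBP12^F36V-Nluc with Fluc were treated with compound for 24 h at 37 °C. Fluc, then Nluc, luminescence was read with Dual-Glo reagents. Values are DMSO-normalised Nluc/Fluc ratios.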

FKBP12^F36V-Nluc = target: T2, FKBP12^F36V-Nluc (Homo sapiens, UniProt P62942, F37V); assay: FKBP12F36V-Nluc dual luciferase assay (293FT); format: cell-based; conditions: 293FT FKBP12F36V-Nluc, 24 h
T2 construct: expressed in transfected cells; host or cells: 293FT
T2 sequence (P62942 2-108 F37V limits assumed): as the sequence (P62942 2-108 limits assumed) above, with F36V counted along it
Summary of the method: as §1

[3] = log10[compound] (M) -5.30103, single replicates
[4] = log10[compound] (M) -5.80103, single replicates
[5] = log10[compound] (M) -6.30103, single replicates
[6] = log10[compound] (M) -6.80103, single replicates
[7] = log10[compound] (M) -7.30103, single replicates
[8] = log10[compound] (M) -7.80103, single replicates
[9] = log10[compound] (M) -8.30103, single replicates
[10] = log10[compound] (M) -8.80103, single replicates
[11] = log10[compound] (M) -9.30103, single replicates
[12] = log10[compound] (M) -9.80103, single replicates

CC[C@H](C(=O)N1CCCC[C@H]1C(=O)O[C@H](CCc1ccc(OC)c(OC)c1)c1ccccc1OCC(=O)NCCCCCCOc1cccc2c1C(=O)N(C1CCC(=O)NC1=O)C2=O)c1cc(OC)c(OC)c(OC)c1 (some centres unmarked) [dTAG-13]
TMT intensity per TMT channel ([1]; protein CDK12): 2762.51 and 2603.47 | TMT intensity per TMT channel ([1]; protein INCENP): 2716.3 and 2681.24 | TMT intensity per TMT channel ([1]; protein IRS2): 372.779 and 399.852 | TMT intensity per TMT channel ([1]; protein SLC12A2): 1746.63 and 1711.2 | TMT intensity per TMT channel ([1]; protein SLC15A4): 223.037 and 230.942 | DMSO-normalized antiproliferation ([2]; log10[compound] (M) -5.69897, replicate values): 79.0923 and 75.109 and 80.3774 and 113.638 | DMSO-normalized antiproliferation ([2]; log10[compound] (M) -6.19897, replicate values): 118.691 and 93.7383 and 99.9076 and 98.4249 | DMSO-normalized antiproliferation ([2]; log10[compound] (M) -6.69897, replicate values): 98.3156 and 96.4487 and 164.194 and 141.704 | DMSO-normalized antiproliferation ([2]; log10[compound] (M) -7.19897, replicate values): 94.7264 and 123.324 and 123.729 and 139.928 | DMSO-normalized antiproliferation ([2]; log10[compound] (M) -7.69897, replicate values): 115.53 and 113.276 and 121.811 and 92.6376 | DMSO-normalized antiproliferation ([2]; log10[compound] (M) -8.19897, replicate values): 99.0586 and 98.4337 and 106.76 and 114.872 | DMSO-normalized antiproliferation ([2]; log10[compound] (M) -8.69897, replicate values): 84.0085 and 109.147 and 95.5423 and 106.301 | DMSO-normalized antiproliferation ([2]; log10[compound] (M) -9.19897, replicate values): 117.815 and 105.751 and 92.5029 and 116.86 | DMSO-normalized antiproliferation ([2]; log10[compound] (M) -9.69897, replicate values): 127.696 and 110.786 and 93.8321 and 122.663 | DMSO-normalized antiproliferation ([2]; log10[compound] (M) -10.199, replicate values): 105.1 and 122.023 and 107.287 and 98.2283 | DMSO-normalized ratio of Nluc/Fluc signal (FKBP12^WT-Nluc; [3]): 68.0018 and 52.1082 and 49.2679 and 67.0893 | DMSO-normalized ratio of Nluc/Fluc signal (FKBP12^WT-Nluc; [4]): 39.4179 and 40.0508 and 57.6875 and 62.3631 | DMSO-normalized ratio of Nluc/Fluc signal (FKBP12^WT-Nluc; [5]): 61.6189 and 51.8679 and 71.8125 and 45.1167 | DMSO-normalized ratio of Nluc/Fluc signal (FKBP12^WT-Nluc; [6]): 68.675 and 79.0108 and 77.6288 and 57.0488 | DMSO-normalized ratio of Nluc/Fluc signal (FKBP12^WT-Nluc; [7]): 95.7266 and 46.8613 and 87.0104 and 66.427 | DMSO-normalized ratio of Nluc/Fluc signal (FKBP12^WT-Nluc; [8]): 86.0033 and 61.1842 and 69.3744 and 83.8873 | DMSO-normalized ratio of Nluc/Fluc signal (FKBP12^WT-Nluc; [9]): 94.8586 and 72.3429 and 122.034 and 94.0336 | DMSO-normalized ratio of Nluc/Fluc signal (FKBP12^WT-Nluc; [10]): 101.052 and 65.5195 and 71.6364 and 55.6566 | DMSO-normalized ratio of Nluc/Fluc signal (FKBP12^WT-Nluc; [11]): 113.35 and 121.354 and 97.4549 and 93.7336 | DMSO-normalized ratio of Nluc/Fluc signal (FKBP12^WT-Nluc; [12]): 115.063 and 75.6978 and 95.0976 and 66.8915 | DMSO-normalized ratio of Nluc/Fluc signal (FKBP12^F36V-Nluc; [3]): 16.9532 and 13.2908 and 14.9671 and 13.7454 | DMSO-normalized ratio of Nluc/Fluc signal (FKBP12^F36V-Nluc; [4]): 7.24 and 7.457 and 10.3426 and 8.644 | DMSO-normalized ratio of Nluc/Fluc signal (FKBP12^F36V-Nluc; [5]): 8.366 and 8.818 and 6.862 and 6.126 | DMSO-normalized ratio of Nluc/Fluc signal (FKBP12^F36V-Nluc; [6]): 7.33 and 5.168 and 6.329 and 6.447 | DMSO-normalized ratio of Nluc/Fluc signal (FKBP12^F36V-Nluc; [7]): 10.0232 and 16.06 and 10.9144 and 8.614 | DMSO-normalized ratio of Nluc/Fluc signal (FKBP12^F36V-Nluc; [8]): 17.0708 and 14.82 and 12.6407 and 10.0196 | DMSO-normalized ratio of Nluc/Fluc signal (FKBP12^F36V-Nluc; [9]): 27.5948 and 22.2337 and 28.8782 and 22.7323 | DMSO-normalized ratio of Nluc/Fluc signal (FKBP12^F36V-Nluc; [10]): 41.1668 and 39.5241 and 40.8834 and 34.8862 | DMSO-normalized ratio of Nluc/Fluc signal (FKBP12^F36V-Nluc; [11]): 85.0231 and 74.0396 and 80.0349 and 60.0307 | DMSO-normalized ratio of Nluc/Fluc signal (FKBP12^F36V-Nluc; [12]): 71.5411 and 59.8417 and 77.3242 and 60.4301
